Data published in publication PMC12410356 (International Journal for Parasitology: Drugs and Drug …, 2025).
Read-outs that look alike come from different tables or passages of the source.

Test system: Reuber rat hepatoma (RH) cells
Experiment: Mammalian cell toxicity, resazurin assay
Assay type: cell-based
Conditions: for IC50: 5 days incubation, mean ± SD
Procedure: Mammalian cell toxicity on RH cells was measured as described in [Rufener et al. (2018)] with few alterations. Briefly, confluent (50′000 cells/well) and pre-confluent (5′000 cells/well) were seeded into 96-well plates in DMEM supplemented with 10 % FBS, penicillin (100 U/mL), streptomycin (100 μg/mL) and tetracycline (5 μg/mL) and incubated at 37 °C under a humid, 5 % CO2 atmosphere for 24 h and 5 h respectively. Alexidine, ESI-09 and MMV1581545 were added to final concentrations ranging from 120 to 0.49 μM (1:3 serial dilution) to each well and then cells were incubated at 37 °C under a humid, 5 % CO2 atmosphere for 5 days. To measure viability, the medium was removed, 180 μL of PBS was added to the cells and resazurin was added to each well to a final concentration of 10 mg/L. The cells were then allowed to process the resazurin at RT for 1 h. Fluorescence was measured on a HIDEX Sense microplate reader. Measurements were performed in triplicates and IC50 values were calculated in R using the three parameter Weibull type 1 model for three independent experiments ([Ritler et al., 2020]).

CC(C)(C)c1cc(C(=O)/C(C#N)=N/Nc2cccc(Cl)c2)no1 [ESI-09]
toxicity against mammalian cell line (in words) (RH cells counter-screen): moderate toxicity
IC50 (Rattus norvegicus, 120 h, confluent, read-out: IC50 confluent RH cells): 37.3 ± 0.73 µM
IC50 (Rattus norvegicus, 120 h, pre-confluent, read-out: IC50 pre-confluent RH cells): 9.02 ± 1.3 µM
IC50 (pre-confluent, read-out: IC50 pre-confluent RH cells): 9.03 ± 1.3 µM
